From patent US20020192827A1, “Novel vector for C. glabrata and the use thereof” (priority 2000, published 2002)

Test system: C. glabrata strain ATCC 200989
Assay: geneticin resistance growth test on -Ura medium, uninduced and copper-induced
Assay type: cell-based, Candida glabrata
Description: C. C. glabrata strain with expression plasmid pFPG1 lacking or carrying the wildtype neomycin/kanamycin resistance gene (which confers resistance to the antibiotic geneticin), on -Ura media supplemented with 1 mg/ml geneticin.
C. C. glabrata strain with expression plasmid pFPG2 lacking or carrying the wildtype neomycin/kanamycin resistance gene (which confers resistance to the antibiotic geneticin), on -Ura media supplemented with 1 mg/ml geneticin.
The neomycin/kanamycin resistance gene from Tn903 confers resistance of C. glabrata to the antibiotic G418, geneticin (Cormack and Falkow, 1999). The pFPG1-NEO plasmid and empty pFPG1 as a control were transformed into C. glabrata strain ATCC 200989 and tested for geneticin resistance under uninduced and induced conditions (FIG. 3C). […] In this case, induction of the MT-1 promoter in pFPG1 was not absolutely necessary to obtain adequate expression of the NEO gene.
The NEO pFPG2 plasmid and empty pFPG2 as a control were transformed into C. glabrata strain ATCC 200989 and tested for geneticin resistance on -Ura medium under uninduced and induced conditions (FIG. 6).

CN[C@@H]1[C@@H](O)[C@@H](O[C@@H]2[C@@H](O)[C@H](O[C@H]3O[C@H]([C@@H](C)O)[C@@H](O)[C@H](O)[C@H]3N)[C@@H](N)C[C@H]2N)OC[C@]1(C)O [geneticin]
geneticin concentration required to suppress growth (strain ATCC 200989 with empty pFPG1 plasmid): about 1 mg/ml
geneticin concentration required to suppress growth (strain ATCC 200989 with empty pFPG2 plasmid, -Ura medium): about 1 mg/ml
